{
  "source": "PubChem BioAssay AID1996",
  "note": "Non-standard residues stand in square brackets, D forms with d. Residues, ends and D or L forms follow the SMILES beside them. ξ: configuration not given here. *: point of attachment. Tos = Cc1ccc(S(=O)(=O)*)cc1; ξP = O=C(O)C1CCCN1",
  "data": [
    {"conditions": "buffer; pH 7.4; 200.0 µM", "units": {"solubility kinetic": "µg/mL"}, "values": [
      {"smiles": "CC(NC(=O)C(C)N1C(=O)c2ccccc2C1=O)c1ccccc1", "note": "(stereo not given)", "solubility kinetic": "> 48.4"},
      {"smiles": "COc1ccc(OC)c(C(=O)COC(=O)c2cccnc2SC)c1", "solubility kinetic": 4.2},
      {"smiles": "CCC(Oc1ccccc1)C(=O)Nc1ncc([N+](=O)[O-])s1", "note": "(stereo not given)", "solubility kinetic": "> 46.1"},
      {"smiles": "Cl.O=C(CCN1CCOCC1)Nc1ccc(Cl)cc1", "solubility kinetic": "> 45.8"},
      {"smiles": "Cn1c(SCC(=O)NC2CCCC2)nc2c(c1=O)SCC2", "solubility kinetic": "> 48.8"},
      {"smiles": "O=C(CCNC(=O)c1ccco1)Nc1ccccc1OC(F)F", "solubility kinetic": "> 48.6"},
      {"smiles": "O=C(CCNC(=O)c1ccccc1Cl)Nc1ccc(S(=O)(=O)Nc2nccs2)cc1", "solubility kinetic": "> 69.7"},
      {"smiles": "CC(=O)Nc1ccc(NC(=O)CSc2nc3ccccc3c(=O)n2CCCN2CCOCC2)cc1", "solubility kinetic": 70.9},
      {"smiles": "CCN(CC)CCOc1ccc(/C(=C(/Cl)c2ccccc2)c2ccccc2)cc1", "solubility kinetic": 1.5},
      {"smiles": "CC1CCCCC1NC(=O)COc1cccnc1[N+](=O)[O-]", "note": "(stereo not given)", "solubility kinetic": "> 44"},
      {"smiles": "CCC(=O)N1CCN(c2ccc(NC(=O)c3ccc4ccccc4c3)cc2)CC1", "solubility kinetic": "< 0.3"},
      {"smiles": "O=C1Nc2cc(C(F)(F)F)ccc2N2CCCCC12", "note": "(stereo not given)", "solubility kinetic": 7.1},
      {"smiles": "CCc1ccc(NC(=O)Cn2cc([N+](=O)[O-])nc2C)cc1", "solubility kinetic": 6.7},
      {"smiles": "COc1ccc(C(C)=O)cc1Cn1nc(C)c([N+](=O)[O-])c1C", "solubility kinetic": "> 45.5"},
      {"smiles": "O=Cc1c(NCCN2CCOCC2)c2ccccc2[nH]c1=O", "solubility kinetic": "> 45.2"},
      {"smiles": "CC(NC(=O)CSc1ncccn1)c1ccc2c(c1)OCO2", "note": "(stereo not given)", "solubility kinetic": "> 47.6"},
      {"smiles": "O=C(CNC(=O)c1ccccc1F)NCc1ccncc1", "solubility kinetic": "> 43.1"},
      {"smiles": "CCOC(=O)C(C)Oc1c(C(=O)OC)sc2ncccc12", "note": "(stereo not given)", "solubility kinetic": 38.2},
      {"smiles": "COc1ccc(NC(C)=O)cc1NC(=O)c1ccc(C#N)cc1", "solubility kinetic": "> 46.4"},
      {"smiles": "COC(=O)c1cc(Cl)c(NC(=O)Cc2ccccc2)cc1OC", "solubility kinetic": 25.6},
      {"smiles": "Nc1nc(Nc2ccccc2F)nc(N2CCCC2)c1[N+](=O)[O-]", "solubility kinetic": 25.8},
      {"smiles": "CC1(NC(=O)CCc2nc3ccccc3c(=O)[nH]2)CCS(=O)(=O)C1", "note": "(stereo not given)", "solubility kinetic": 49.2},
      {"smiles": "CCOC(=O)N1CCN(C(=O)COC(=O)c2ccc(O)cc2O)CC1", "solubility kinetic": "> 52.9"},
      {"smiles": "O=S(=O)(c1cccc(F)c1)N1CCN(c2nc(-c3cccnc3)nc3ccccc23)CC1", "solubility kinetic": 1.2},
      {"smiles": "CCCCCOc1ccc(C(=O)CCN2CCOCC2)cc1.Cl", "solubility kinetic": 34.9},
      {"smiles": "Cc1ccc(Oc2nc3c(c(=O)n(C)c(=O)n3C)n2C)cc1C", "solubility kinetic": 40},
      {"smiles": "Cc1nc2ccc(Cl)cc2c(=O)n1-c1ccc([N+](=O)[O-])cc1", "solubility kinetic": 3.7},
      {"smiles": "Cc1ccc(/C=C(\\C#N)C(=O)NC(C)c2ccccc2)o1", "note": "(stereo not given)", "solubility kinetic": 8.6},
      {"smiles": "Cc1cc(C)c(C(=O)Nc2ccccc2)c(CC(C)(C)C(=O)O)c1", "solubility kinetic": "> 48.8"},
      {"smiles": "CCOc1ccc(C(=O)NCC2CCN(CC3CCCCC3)CC2)cc1", "solubility kinetic": "> 53.8"},
      {"smiles": "c1ccc(CC2CCCCN2)cc1", "note": "(stereo not given)", "solubility kinetic": 7.7},
      {"smiles": "Nc1cc(N)nc(SCC(=O)NNC(=O)Cc2ccccc2)n1", "solubility kinetic": "> 49.9"},
      {"smiles": "CCCCN1C(=O)CC(Sc2ncccc2C(=O)O)C1=O", "note": "(stereo not given)", "solubility kinetic": 39.9},
      {"smiles": "COc1ccc(CNC(=O)C(Cc2ccccc2)n2cccc2)cc1", "note": "(stereo not given)", "solubility kinetic": 7.8},
      {"smiles": "Cc1ccc(NC(=O)Nc2ccc(Cl)c(Cl)c2)nc1", "solubility kinetic": "< 0.2"},
      {"smiles": "CCn1c(CCc2ccccc2)nc2ccccc21.Cl", "solubility kinetic": 28.4},
      {"smiles": "Cc1ccc(/C=C2\\C(=O)NC(=S)N(c3cccc(F)c3)C2=O)o1", "solubility kinetic": 43.1},
      {"smiles": "C=CCN1CC[C@]23c4c5ccc(O)c4O[C@H]2C(=O)CC[C@@]3(O)[C@H]1C5.Cl", "solubility kinetic": "> 54.6"},
      {"smiles": "Cc1nc2cc(NC(=O)Nc3cccc(F)c3)ccc2n1C", "solubility kinetic": 3.3},
      {"smiles": "CC(C)(C)NC(=O)N1c2ccccc2Sc2ccccc21", "solubility kinetic": 23},
      {"smiles": "CC(C)c1ccc(CN2CCSCC2)cc1", "solubility kinetic": 1.1},
      {"smiles": "CSc1ncccc1C(=O)OC(C)C(=O)Nc1cccc(S(=O)(=O)N2CCOCC2)c1", "note": "(stereo not given)", "solubility kinetic": 8.4},
      {"smiles": "Cc1ccc(S(=O)(=O)N(Cc2ccccc2)C(C)C)cc1", "solubility kinetic": 5},
      {"smiles": "Cc1noc(C)c1-c1nc(CSc2ccc(Cl)cc2)no1", "solubility kinetic": "< 0.2"},
      {"smiles": "CCCn1c(COc2ccccc2OC)nc2ccccc21", "solubility kinetic": 39.5},
      {"smiles": "CCCCn1c(N)c(N(CC)C(=O)C2CCC2)c(=O)[nH]c1=O", "solubility kinetic": "> 46.3"},
      {"smiles": "CC1(C)Cc2cccc(OCC(=O)NCc3ccccc3)c2O1", "solubility kinetic": "> 46.7"},
      {"smiles": "CC(NC(=O)CC1CCCCC1)c1ccccc1", "note": "(stereo not given)", "solubility kinetic": "> 36.8"},
      {"smiles": "CCCCCC(=O)Nc1ccc(-c2csc(N)n2)cc1", "solubility kinetic": 5.9},
      {"smiles": "CN(C(=O)COC(=O)c1cccnc1Cl)C1CCCCC1", "solubility kinetic": "> 46.6"},
      {"smiles": "CN(C)CCNC(C(=O)Nc1cc(Cl)cc(Cl)c1)c1ccccc1", "note": "(stereo not given)", "solubility kinetic": "> 54.9"},
      {"smiles": "COc1ccc(/C=C/C(=O)OCC(=O)NC(=O)NC(C)(C)C)cc1", "solubility kinetic": "< 0.4"},
      {"smiles": "Cc1cc(OCC(=O)N2CCC(C(=O)O)CC2)c2c(C)cc(=O)oc2c1", "solubility kinetic": "> 53.9"},
      {"smiles": "O=C1c2ccccc2C(=O)C1c1ccccn1", "solubility kinetic": 14.2},
      {"smiles": "CC(C)(C)CC(=O)Nc1ccc(S(=O)(=O)N2CCCC2)cc1", "solubility kinetic": "> 48.7"},
      {"smiles": "Cc1cc(=O)oc2cc(NC(=O)c3cccc(F)c3)ccc12", "solubility kinetic": "< 0.6"},
      {"smiles": "Cc1cccc(C(=O)Nc2ccc3ccccc3c2)c1", "solubility kinetic": "< 0.6"},
      {"smiles": "Cc1ccc(S(=O)(=O)NCC(=O)N2CCCC2C(=O)O)cc1", "note": "(stereo not drawn) (Tos-Gly-[ξP]-OH)", "solubility kinetic": "> 49"},
      {"smiles": "CN(Cc1ccccc1)c1ncnc2sccc12", "solubility kinetic": 32.4},
      {"smiles": "C=C(C)[C@@H]1CC=C(CN2CCN(Cc3ccccc3)CC2)CC1", "solubility kinetic": 9.9}
    ]}
  ]
}
